Experimental data: patent US9695155B2, “Herbicidal substituted pyrimidinyloxy benzene compounds” (E. I. DU PONT DE NEMOURS AND COMPANY, priority 2013, dated 2017)

Key:
wheat [1] = test: Test A preemergence; type: in vivo, Triticum aestivum; settings: for Wheat plant response rating (0 to 100 scale): 125 g ai/ha
How it was run: (§1)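 Scoring: eye-based comparison with untreated controls, 0 for no effect through 100 for complete control, at about day 10. Treatments: directed soil spray preemergence; foliar spray postemergence on 2–10 cm plants at the one- to two-leaf stage. Medium: loam soil with sand.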

barnyardgrass [2] = test: Test A preemergence; type: in vivo, Echinochloa crus-galli; settings: for Barnyardgrass plant response rating (0 to 100 scale, 0 is no effect, 100 is complete control): 125 g ai/ha; for Barnyardgrass plant response rating: 500 g ai/ha, 0 to 100 scale where 0 is no effect and 100 is complete control
How it was run: as §1

giant foxtail [3] = test: Test A postemergence; type: in vivo, Setaria faberii; settings: for Foxtail, Giant plant response rating: 125 g ai/ha
How it was run: as §1

Heteranthera limosa = test: Test B flooded paddy test; type: in vivo; settings: Flood, 250 g ai/ha; 0 to 100 scale where 0 is no effect and 100 is complete control
How it was run: (§2)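 Seedlings are raised to two leaves, flooded to a depth of 3 cm and dosed by adding the compound to the floodwater. Water level is kept constant, and plants are scored visually versus controls 13–15 days later (0 = no effect, 100 = complete control).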

pigweed [4] = test: Test A postemergence; type: in vivo, Amaranthus retroflexus; settings: for Pigweed plant response rating: 125 g ai/ha
How it was run: as §1

large (Lg) crabgrass [5] = test: Test A preemergence; type: in vivo, Digitaria sanguinalis; settings: for Crabgrass, Large plant response rating (0 to 100 scale): 125 g ai/ha; for Crabgrass, Large plant response rating: 500 g ai/ha, 0 to 100 scale where 0 is no effect and 100 is complete control
How it was run: as §1

wheat [6] = test: Test A postemergence; type: in vivo, Triticum aestivum; settings: for Wheat plant response rating: 125 g ai/ha
How it was run: as §1

velvetleaf [7] = test: Test A preemergence; type: in vivo, Abutilon theophrasti; settings: for Velvetleaf plant response rating (0 to 100 scale): 125 g ai/ha
How it was run: as §1

corn [8] = test: Test A preemergence; type: in vivo, Zea mays; settings: for Corn plant response rating (0 to 100 scale): 125 g ai/ha; for Corn plant response rating: 500 g ai/ha, 0 to 100 scale where 0 is no effect and 100 is complete control
How it was run: as §1

barnyardgrass [9] = test: Test B flooded paddy test; type: in vivo, Echinochloa crus-galli; settings: Flood, 250 g ai/ha; 0 to 100 scale where 0 is no effect and 100 is complete control
How it was run: as §2

morningglory [10] = test: Test A postemergence; type: in vivo, Ipomoea spp.; settings: for Morningglory plant response rating: 125 g ai/ha
How it was run: as §1

barnyardgrass [11] = test: Test A postemergence; type: in vivo, Echinochloa crus-galli; settings: for Barnyardgrass plant response rating: 125 g ai/ha
How it was run: as §1

pigweed [12] = test: Test A preemergence; type: in vivo, Amaranthus retroflexus; settings: for Pigweed plant response rating (0 to 100 scale): 125 g ai/ha
How it was run: as §1

velvetleaf [13] = test: Test A postemergence; type: in vivo, Abutilon theophrasti; settings: for Velvetleaf plant response rating: 125 g ai/ha
How it was run: as §1

large (Lg) crabgrass [14] = test: Test A postemergence; type: in vivo, Digitaria sanguinalis; settings: for Crabgrass, Large plant response rating: 125 g ai/ha
How it was run: as §1

morningglory [15] = test: Test A preemergence; type: in vivo, Ipomoea spp.; settings: for Morningglory plant response rating (0 to 100 scale): 125 g ai/ha
How it was run: as §1

rice = test: Test B flooded paddy test; type: in vivo, Oryza sativa; settings: Flood, 250 g ai/ha; 0 to 100 scale where 0 is no effect and 100 is complete control
How it was run: as §2

giant foxtail [16] = test: Test A preemergence; type: in vivo, Setaria faberii; settings: for Foxtail, Giant plant response rating (0 to 100 scale): 125 g ai/ha
How it was run: as §1

sedge, umbrella = test: Test B flooded paddy test; type: in vivo, Cyperus difformis; settings: Flood, 250 g ai/ha; 0 to 100 scale where 0 is no effect and 100 is complete control
How it was run: as §2

corn [17] = test: Test A postemergence; type: in vivo, Zea mays; settings: for Corn plant response rating: 125 g ai/ha
How it was run: as §1

[18] = 1000 g ai/ha, 0 to 100 scale, 0 no effect, 100 complete control, approx. 10 days
[19] = 1000 g ai/ha, 0 to 100 scale, 0 no effect, 100 complete control
[20] = 500 g ai/ha, 0 to 100 scale where 0 is no effect and 100 is complete control
[21] = 0 to 100 scale where 0 is no effect and 100 is complete control

C=C(C)c1cn(-c2c(Br)cccc2Oc2ncc(Cl)cn2)nn1 [Compound 114]
20: Plant response rating, Corn (corn [8]; [19])
90: Plant response rating, Barnyardgrass (barnyardgrass [2]; [19]) | Plant response rating, Foxtail, Giant (giant foxtail [3]; [19]) | Plant response rating, Crabgrass, Large (large (Lg) crabgrass [14]; [19])
0: Plant response rating, Barnyardgrass (barnyardgrass [9]) | Plant response rating, Rice (rice)
50: Plant response rating, Ducksalad (Heteranthera limosa)
80: Plant response rating, Morningglory (morningglory [10]; [19])
30: Plant response rating, Sedge, Umbrella (sedge, umbrella)
70: Plant response rating, Corn (corn [17]; [19])
10: Morningglory plant response rating (morningglory [15]; [18])
40: Wheat plant response rating (wheat [1]; [18])
60: Plant response rating, Wheat (wheat [6]; [19])
100: Plant response rating, Pigweed (pigweed [4]; [19]) | Plant response rating, Crabgrass, Large (large (Lg) crabgrass [5]; [19]) | Velvetleaf plant response rating (velvetleaf [7]; [18]) | Plant response rating, Barnyardgrass (barnyardgrass [11]; [19]) | Pigweed plant response rating (pigweed [12]; [18]) | Plant response rating, Velvetleaf (velvetleaf [13]; [19]) | Foxtail, Giant plant response rating (giant foxtail [16]; [18])

O=Cc1cccc(Oc2ncc(Cl)cn2)c1-n1cc(I)cn1 [Compound 182]
90: Plant response rating, Pigweed (pigweed [4]; [20]) | Pigweed plant response rating (0 to 100 scale) (pigweed [12])
30: Pigweed plant response rating (pigweed [4]; [21]) | Crabgrass, Large plant response rating (large (Lg) crabgrass [5]) | Velvetleaf plant response rating (velvetleaf [13]; [21]) | Plant response rating, Velvetleaf (velvetleaf [13]; [20])
100: Pigweed plant response rating (pigweed [12]; [20])
0: Wheat plant response rating (0 to 100 scale) (wheat [1]) | Wheat plant response rating (wheat [1]; [20]) | Barnyardgrass plant response rating (0 to 100 scale, 0 is no effect, 100 is complete control) (barnyardgrass [2]) | Foxtail, Giant plant response rating (giant foxtail [3]; [21]) | Plant response rating, Foxtail, Giant (giant foxtail [3]; [20]) | Plant response rating, Ducksalad (Heteranthera limosa) | Crabgrass, Large plant response rating (0 to 100 scale) (large (Lg) crabgrass [5]) | Wheat plant response rating (wheat [6]; [21]) | Plant response rating, Wheat (wheat [6]; [20]) | Velvetleaf plant response rating (0 to 100 scale) (velvetleaf [7]) | Velvetleaf plant response rating (velvetleaf [7]; [20]) | Corn plant response rating (0 to 100 scale) (corn [8]) | Corn plant response rating (corn [8]) | Plant response rating, Barnyardgrass (barnyardgrass [9]) | Morningglory plant response rating (morningglory [10]; [21]) | Plant response rating, Morningglory (morningglory [10]; [20]) | Barnyardgrass plant response rating (barnyardgrass [11]; [21]) | Plant response rating, Barnyardgrass (barnyardgrass [11]; [20]) | Crabgrass, Large plant response rating (large (Lg) crabgrass [14]; [21]) | Plant response rating, Crabgrass, Large (large (Lg) crabgrass [14]; [20]) | Morningglory plant response rating (0 to 100 scale) (morningglory [15]) | Morningglory plant response rating (morningglory [15]; [20]) | Plant response rating, Rice (rice) | Foxtail, Giant plant response rating (0 to 100 scale) (giant foxtail [16]) | Plant response rating, Sedge, Umbrella (sedge, umbrella) | Corn plant response rating (corn [17]; [21]) | Plant response rating, Corn (corn [17]; [20])
20: Barnyardgrass plant response rating (barnyardgrass [2]) | Foxtail, Giant plant response rating (giant foxtail [16]; [20])

COc1cnn(-c2ccccc2Oc2ncc(Cl)cn2)c1 [Compound 186]
60: Plant response rating, Wheat (wheat [6]; [20]) | Morningglory plant response rating (morningglory [10]; [21])
100: Barnyardgrass plant response rating (barnyardgrass [2]) | Pigweed plant response rating (pigweed [4]; [21]) | Plant response rating, Pigweed (pigweed [4]; [20]) | Crabgrass, Large plant response rating (0 to 100 scale) (large (Lg) crabgrass [5]) | Crabgrass, Large plant response rating (large (Lg) crabgrass [5]) | Velvetleaf plant response rating (velvetleaf [7]; [20]) | Plant response rating, Morningglory (morningglory [10]; [20]) | Pigweed plant response rating (0 to 100 scale) (pigweed [12]) | Pigweed plant response rating (pigweed [12]; [20]) | Foxtail, Giant plant response rating (giant foxtail [16]; [20])
30: Barnyardgrass plant response rating (0 to 100 scale, 0 is no effect, 100 is complete control) (barnyardgrass [2]) | Plant response rating, Corn (corn [17]; [20])
40: Crabgrass, Large plant response rating (large (Lg) crabgrass [14]; [21])
20: Wheat plant response rating (wheat [1]; [20]) | Foxtail, Giant plant response rating (giant foxtail [3]; [21]) | Barnyardgrass plant response rating (barnyardgrass [11]; [21]) | Morningglory plant response rating (morningglory [15]; [20])
0: Wheat plant response rating (0 to 100 scale) (wheat [1]) | Plant response rating, Ducksalad (Heteranthera limosa) | Wheat plant response rating (wheat [6]; [21]) | Corn plant response rating (0 to 100 scale) (corn [8]) | Corn plant response rating (corn [8]) | Plant response rating, Barnyardgrass (barnyardgrass [9]) | Morningglory plant response rating (0 to 100 scale) (morningglory [15]) | Plant response rating, Rice (rice) | Plant response rating, Sedge, Umbrella (sedge, umbrella) | Corn plant response rating (corn [17]; [21])
70: Velvetleaf plant response rating (0 to 100 scale) (velvetleaf [7]) | Plant response rating, Barnyardgrass (barnyardgrass [11]; [20]) | Plant response rating, Crabgrass, Large (large (Lg) crabgrass [14]; [20])
90: Plant response rating, Velvetleaf (velvetleaf [13]; [20])
80: Plant response rating, Foxtail, Giant (giant foxtail [3]; [20]) | Velvetleaf plant response rating (velvetleaf [13]; [21]) | Foxtail, Giant plant response rating (0 to 100 scale) (giant foxtail [16])
